test system: PDCD1 protein; assay: Surface expression of the PDCD1 protein by flow cytometry in Jurkat cells; format: cell-based, human; conditions: flow cytometry 4, 7 and 11 days post-transfection, crPDCD1_2 value at day 4, same at day 11
Procedure: For detection of PDCD1 knock-out efficiency, approx. 250,000 Jurkat cells per sample were transferred onto 96-well V-bottom cell culture plates and assessed following a series of consecutive washing and staining steps. The first step included centrifuging the cells at 300 g for 5 minutes at 4° C., and discarding the supernatant. Afterwards, the cells were stained using 100 μL Cell Staining Buffer (Biolegend) with APC/Cyanine7 anti-human CD279 (PD-1) antibody (1:100: Biolegend) and incubated for 30 minutes at 4° C., in the dark. The cells were then centrifuged at 300 g for 5 minutes at 4° C., and the supernatant discarded. The next step included two repeats of centrifugation at 300 g for 5 minutes at 4° C., supernatant removal, and cell washing in 150 μL ice-cold Cell Staining Buffer (Biolegend). In the final step, the cells were re-suspended in 100 μL Cell Staining Buffer for the flow cytometry measurements (excitation: red laser; emission: […]).
High-efficiency gNAs identified in our initial analysis were validated by assaying INDEL frequency for the top three or five gNAs for each of the selected immunologically relevant genes (FIG. 15). […] Alternating grey and white zones on the plot represent groups of three to five high-efficiency gNAs per locus. […] Using the CRISPresso2 software, the degree of open reading frame (ORF) disruption for each of the validated gNAs was estimated (FIG. 15). In addition, for four high-efficiency gNAs targeting three different exons at the PDCD1 locus, surface expression of the PDCD1 protein was measured by flow cytometry 4, 7, and 11 days post-transfection (data not shown).

Which “surface expression of the PDCD1 protein” value does the source give for “crPDCD1_3: high-efficiency gNA targeting the PDCD1 locus (guide CAGTGGCGAGAGAAGACCCCG; spacer only, further chemistry not given here)” here?
The value was 35%.

For “crPDCD1_4: high-efficiency gNA targeting the PDCD1 locus (guide CTAGCGGAATGGGCACCTCAT; spacer only, further chemistry not given here)”, which “surface expression of the PDCD1 protein” value is on record?
Its value is 85%.

How did the “surface expression of the PDCD1 protein” value turn out when “crPDCD1_5: high-efficiency gNA targeting the PDCD1 locus (guide GTGCTAAACTGGTACCGCATG; spacer only, further chemistry not given here)” was run?
Its value is 85%.

test system: TRBC1 and TRBC2; assay: On-target Amplicon-NGS in Pan T-cells, TRBC; format: cell-based, human; conditions: not given
Source text: T-cells were isolated […] buffy coats and nucleofected after two days. The buffy coats were procured from the Rigshospitalet in Copenhagen, Denmark. The Pan-T cells were enriched by negative selection using an Easy Sep Human T-cell Isolation Kit from StemCell Technologies. The RNPs were formed by mixing gRNAs with Art-Mad7mam+ prior to nucleofection with Jurkat or T-cells. In some cases, synthetic ssODNs (Table 11) with a length of 200 nt were included in the transfections to evaluate impact on frame shift mutation rates by HDR rather than relying on NHEJ alone in an effort to maximize functional disruption. The ssODNs were designed to comprise a deletion of the spacer and PAM sequence thereby resulting in a programmed frame shift. After transfection, the cells were cultivated and assayed for the different readouts. The nucleofection with dual gRNAs followed a similar protocol, but with minor differences in pre-assembling of the gRNAs. Briefly, the two dual RNAs (modulator and targeter) are combined in a molecular ratio of 1:1 (400 μM Modulator
At the genome level, Amplicon-NGS was used to determine the type and mutation frequency at the on-target site. The Amplicon-NGS assay is based on the amplification of the on-target site using specific primer pairs. The primers are designed to have the predicted cutting site at the center and a length of 180-280 nt. The amplicons are indexed for NGS and sequenced on an Illumina MiSeq system. The analysis was performed using the Crispresso script. Crispresso requires the input of a configuration file comprised of the specific gRNA sequence, primer sequences and the theoretical amplicon that is based on the alignment of the primer pair to the reference human genome GRCh38. In addition, for HDR analysis associated with ssODN-programmable editing a reference sequence with the specific mutations can be input into the configuration file. Crispresso aligns the sequencing reads to the reference amplicon and analyzes the mutation type and frequency −/+10 nt at the putative cut site of Art-Mad7mam+ based on the provided gRNA sequence. As output, Crispresso delivers different mutation types and their frequencies: Substitutions, INDELs, HDR Unmodified, HDR INDELs, HDR+substitutions.
To further test the effects of ssODNs, single and dual gRNAs were mixed with Art-MAD7mam+ nuclease, and in some cases included a ssODN designed to create a programmed disruption in the target gene. The freshly isolated Pan-T cells were activated and cultured for 2 days, and RNPs−/+ssODNs were transfected using the Lonza 96-well plate shuttle. […]

How did the “lower INDEL frequency, dual vs regular configuration” value turn out when “gTRBC1_2_003: gRNA targeting both TRBC1 and TRBC2; dual form Targeter_TRBC1_2_003 UUGUAGAUAGCCAUCAGAAGCAGAGAUCU (dual-guide targeter with IDT AltR2 3' modification, chemistry undefined, further chemistry not given here)” was run?
Its value is ~5%.

same assay, conditions: inclusion of ssODNs

For “gTRBC1_2_003: gRNA targeting both TRBC1 and TRBC2; dual form Targeter_TRBC1_2_003 UUGUAGAUAGCCAUCAGAAGCAGAGAUCU (dual-guide targeter with IDT AltR2 3' modification, chemistry undefined, further chemistry not given here)”, which “perfect HDR rate” value is on record?
The value was ~40%.

same assay, conditions: inclusion of ssODNs, all cases

With “gTRBC1_2_003: gRNA targeting both TRBC1 and TRBC2; dual form Targeter_TRBC1_2_003 UUGUAGAUAGCCAUCAGAAGCAGAGAUCU (dual-guide targeter with IDT AltR2 3' modification, chemistry undefined, further chemistry not given here)” as the substance, how does the mutation rate read?
The mutation rate was > 90%.

same assay, conditions: regular gRNA configuration

For “gTRBC1_2_003: gRNA targeting both TRBC1 and TRBC2; dual form Targeter_TRBC1_2_003 UUGUAGAUAGCCAUCAGAAGCAGAGAUCU (dual-guide targeter with IDT AltR2 3' modification, chemistry undefined, further chemistry not given here)”, which “INDEL frequency at the on-target site” value is on record?
The value was ~90%.

test system: human genes; assay: Editing efficiency of tested crRNAs / guide nucleic acids (Tables 7-10) detected in human cells; format: cell-based; conditions: tested crRNAs targeting human genes; target gene as given (Table 10)

For “gTRBC2_8 (guide CTTTCAGACTGTGGCTTCACC; chemistry not given here)”, which “% Indel” value is on record?
Its value is 0.24%.

“gTRBC2_9 (guide TTTCAGACTGTGGCTTCACCT; chemistry not given here)” was tested. Which “% Indel” value did it give?
Its value is 0.24%.

How did the “% Indel” value turn out when “gTRBC2_10 (guide CAGACTGTGGCTTCACCTCCG; chemistry not given here)” was run?
Its value is 0.16%.

“gTRBC2_11 (guide AGACTGTGGCTTCACCTCCGG; chemistry not given here)” was tested. Which “% Indel” value did it give?
Its value is 19.97%.

Which “% Indel” value does the source give for “gTRBC2_12: spacer targeting TRBC2, SEQ ID NO 1379, CCGGAGGTGAAGCCACAGTCT (chemistry not given here)” here?
The value was 33.14%.

With “gTRBC2_13 (guide TCAACAGAGTCTTACCAGCAA; chemistry not given here)” as the substance, how does the “% Indel” value read?
The value was 1.2%.

For “gTRBC2_14 (guide CCAGCAAGGGGTCCTGTCTGC; chemistry not given here)”, which “% Indel” value is on record?
The value was 6.69%.

Which “% Indel” value does the source give for “gTRBC2_15 (guide CTAGGGAAGGCCACCTTGTAT; chemistry not given here)” here?
Its value is 21.74%.

Which “% Indel” value does the source give for “gTRBC2_16 (guide TATGCCGTGCTGGTCAGTGCC; chemistry not given here)” here?
Its value is 0.2%.

Which “% Indel” value does the source give for “gTRBC2_17 (guide CCATGGCCATCAGCACGAGGG; chemistry not given here)” here?
The value was 1.75%.

With “gTRBC2_18 (guide CCTAGCAAGATCTCATAGAGG; chemistry not given here)” as the substance, how does the “% Indel” value read?
The value was 0.37%.

“gTRBC2_19 (guide CACAGGTCAAGAGAAAGGATT; chemistry not given here)” was tested. Which “% Indel” value did it give?
Its value is 1.58%.

With “gTRBC2_21 (guide GAGCTAGCCTCTGGAATCCTT; chemistry not given here)” as the substance, how does the “% Indel” value read?
The value was 11.89%.

For “gTUBB_1 (guide AACCATGAGGGAAATCGTGCA; chemistry not given here)”, which “% Indel” value is on record?
The value was 2.61%.

“gTUBB_2 (guide ACCATGAGGGAAATCGTGCAC; chemistry not given here)” was tested. Which “% Indel” value did it give?
Its value is 68.4%.

With “gTUBB_3 (guide TTCTCTGTAGGTGGCAAATAT; chemistry not given here)” as the substance, how does the “% Indel” value read?
Its value is 18.67%.

“gU6_1 (guide GTCCTTTCCACAAGATATATA; chemistry not given here)” was tested. Which “% Indel” value did it give?
Its value is 68.1%.

How did the “% Indel” value turn out when “gU6_2 (guide GATTTCTTGGCTTTATATATC; chemistry not given here)” was run?
Its value is 0.71%.

How did the “% Indel” value turn out when “gU6_3 (guide TTGGCTTTATATATCTTGTGG; chemistry not given here)” was run?
The value was 2.83%.

How did the “% Indel” value turn out when “gU6_4 (guide GCTTTATATATCTTGTGGAAA; chemistry not given here)” was run?
The value was 0.37%.

Which “% Indel” value does the source give for “gU6_5 (guide ATATATCTTGTGGAAAGGACG; chemistry not given here)” here?
Its value is 0.39%.

For “gU6_6 (guide TATATCTTGTGGAAAGGACGA; chemistry not given here)”, which “% Indel” value is on record?
Its value is 0.39%.

“gU6_7 (guide TGGAAAGGACGAAACACCGTG; chemistry not given here)” was tested. Which “% Indel” value did it give?
Its value is 0.24%.

From patent US20250179481A1, “COMPOSITIONS AND METHODS FOR TARGETING, EDITING, OR MODIFYING GENES” (Celyntra Therapeutics SA, priority 2021, published 2025)
